# In ChEMBL document CHEMBL1177785, “Chemoselective regulation of TREK2 channel: activation by sulfonate chalcones and inhibition by sulfonamide chalcones” (Bioorg Med Chem Lett, 2010):
# Key:
# [1] = target: T1, Potassium channel subfamily K member 10 (Rattus norvegicus, UniProt Q9JIS4); assay: Inhibition of rat TREK2 channel -mediated current expressed in HEK293 at 60 mV holding potential by patch clamp method; type: cell-based
# T1 sequence (Q9JIS4 whole entry): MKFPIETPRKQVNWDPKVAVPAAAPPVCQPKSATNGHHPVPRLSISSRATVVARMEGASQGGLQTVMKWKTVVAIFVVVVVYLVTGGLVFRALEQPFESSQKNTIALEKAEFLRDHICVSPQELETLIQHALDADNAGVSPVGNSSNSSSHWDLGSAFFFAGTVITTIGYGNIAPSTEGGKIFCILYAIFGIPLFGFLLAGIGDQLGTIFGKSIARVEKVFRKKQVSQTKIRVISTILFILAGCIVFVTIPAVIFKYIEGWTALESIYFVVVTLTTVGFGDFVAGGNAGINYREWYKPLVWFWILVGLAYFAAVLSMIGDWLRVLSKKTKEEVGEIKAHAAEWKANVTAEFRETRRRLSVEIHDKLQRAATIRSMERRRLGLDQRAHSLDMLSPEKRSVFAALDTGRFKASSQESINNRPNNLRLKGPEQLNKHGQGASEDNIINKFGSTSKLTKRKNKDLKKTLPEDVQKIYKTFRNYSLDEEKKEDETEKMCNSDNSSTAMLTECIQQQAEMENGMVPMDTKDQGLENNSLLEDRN
# [2] = target: T1, Potassium channel subfamily K member 10; assay: Activation of rat TREK2 channel -mediated current expressed in HEK293 at 60 mV holding potential by patch clamp method; type: cell-based
IC50 [1] [µM],EC50 [2] [µM],SMILES
> 100,,Cc1ccc(S(=O)(=O)Nc2ccc(C(=O)/C=C/c3ccccc3)cc2)cc1
100,,COc1ccc(/C=C/C(=O)c2ccc(NS(=O)(=O)c3ccc(C)cc3)cc2)cc1
62,,Cc1ccc(S(=O)(=O)Nc2ccc(C(=O)/C=C/c3ccc(O)cc3)cc2)cc1
,167,Cc1ccc(S(=O)(=O)Oc2ccc(C(=O)/C=C/c3ccc(O)cc3)cc2)cc1
